According to patent US20160038468A1 (priority 2013, published 2016):
Where two headings read alike, the source gives them in different places.

Legend:
[1] = tested on: bacterial vaginosis (BV) related organisms; test: Agar dilution MIC (CLSI), 411 vaginal BV related organisms overall; assay type: cell-based
Protocol: The method used was the reference method approved by the Clinical and Laboratory Standards Institute (CLSI). The CLSI is considered the gold standard for determining the lowest concentration of an antimicrobial agent that prevents growth of a microorganism in an agar dilution susceptibility test referred to as the minimal inhibitory concentration (MIC).
A total of 411 unique microbial isolates recovered from the human vagina of US women from a period of time from 2009 to 2012 were tested for antimicrobial susceptibility by the agar dilution method. A total of 13 analytical runs were conducted in order to analyze all of the samples. See, Example 1.
A total of 411 unique microbial isolates recovered from the human vagina from 2009-2012 were tested for antimicrobial susceptibility by the agar dilution method. This procedure followed the guidelines of the Clinical Laboratory Standard Institute reference agar dilution method (CLSI).
The MIC endpoint was read on the test plate. The MIC is that concentration at which a marked reduction occurs in the appearance of growth on the test plate as compared to the amount that of growth on the control plate. Examples of a marked change in growth include a change from confluent growth to a haze, less than 10 tiny colonies, or one to three normal sized colonies. The illustrated figures found in the CLSI manual should be used as a guide.

[2] = tested on: Gardnerella vaginalis; test: Agar dilution MIC (CLSI), Gardnerella vaginalis vaginal isolates; assay type: cell-based; conditions: for Number of strains with indicated MIC: 100 samples
[3] = tested on: Prevotella timonensis; test: Agar dilution MIC (CLSI), Prevotella timonensis vaginal isolates; assay type: cell-based; conditions: for MIC: read-out: Minimal Inhibitory Concentration (MIC); for Number of strains with indicated MIC: 33 samples
[4] = tested on: Mobiluncus all species; test: Agar dilution MIC (CLSI), Mobiluncus all species; assay type: cell-based
[5] = tested on: vaginal infections; conditions: daily dosage less than 100 mg/day; cited from earlier work
[6] = tested on: Peptoniphilus lacrimalis; test: Agar dilution MIC (CLSI), Peptoniphilus lacrimalis vaginal isolates; assay type: cell-based; conditions: for Number of strains with indicated MIC: 20 samples; for MIC: read-out: Minimal Inhibitory Concentration (MIC)
[7] = tested on: Lactobacilli; conditions: pathogens: Gardnerella vaginalis, Mobiluncus spp, Bacteroides bivius-disiens; cited from earlier work
[8] = tested on: Peptoniphilus harei; test: Agar dilution MIC (CLSI), Peptoniphilus harei vaginal isolates; assay type: cell-based; conditions: for Number of strains with indicated MIC: 23 samples; for MIC: read-out: Minimal Inhibitory Concentration (MIC)
[9] = tested on: Clostridium difficile, ATCC 700057; conditions: agar dilution testing, from CLSI Table 5; cited from earlier work
[10] = tested on: Atopobium vaginae; test: Agar dilution MIC (CLSI), Atopobium vaginae vaginal isolates; assay type: cell-based; conditions: for Number of strains with indicated MIC: 62 samples
[11] = Gardnerella vaginalis, # tested 107
[12] = Hoylesella timonensis, # tested 33
[13] = Peptoniphilus lacrimalis, # tested 20
[14] = Peptoniphilus harei, # tested 23
[15] = Fannyhessea vaginae, # tested 62

CO[C@H]1/C=C/O[C@@]2(C)Oc3c(C)c(O)c4c(O)c(c5c(nc6cc(C)ccn65)c4c3C2=O)NC(=O)/C(C)=C\C=C\[C@H](C)[C@H](O)[C@@H](C)[C@@H](O)[C@@H](C)[C@H](OC(C)=O)[C@@H]1C [Rifaximin]
12: Number of strains with indicated MIC ([6]; MIC 0.015 μg/ml)
6: Number of strains with indicated MIC ([8]; MIC 0.015 μg/ml)
62 strains: number of Atopobium vaginae strains against which the agent had activity [10]
> 128 µg/mL: MIC90 [2, 11]
33 (100) μg/ml: Susceptible ([3]; number (%) of isolates, # tested 33)
27: Number of strains with indicated MIC ([3]; MIC 0.015 μg/ml)
15: Number of strains with indicated MIC ([8]; MIC 0.0075 μg/ml)
equal to, or even higher than: inhibitory action (MIC50 and MIC90) against Lactobacilli compared with action against pathogenic bacteria [7]
1: Number of strains with indicated MIC ([3]; MIC 0.00375 μg/ml) | Number of strains with indicated MIC ([3]; MIC 0.06 μg/ml) | Number of strains with indicated MIC ([6]; MIC 0.03 μg/ml) | Number of strains with indicated MIC ([8]; MIC 0.00375 μg/ml) | Number of strains with indicated MIC ([8]; MIC 0.03 μg/ml) | Number of strains with indicated MIC ([10]; MIC 0.06 μg/ml)
40 (100) μg/ml: Susceptible ([4]; number (%) of isolates, # tested 40)
0.06 µg/mL: MIC ([3]; Hoylesella timonensis, isolate 601167 13)
0.0039 to 0.0156 µg/mL: Acceptable Range of MIC for control strain [9]
0.015 µg/mL: MIC ([3]; Hoylesella timonensis, isolate 601088 15) | MIC ([3]; Hoylesella timonensis, isolate 601093 24) | MIC ([3]; Hoylesella timonensis, isolate 601097 S) | MIC ([3]; Hoylesella timonensis, isolate 601098 B) | MIC ([3]; Hoylesella timonensis, isolate 601157 19) | MIC ([3]; Hoylesella timonensis, isolate 601170 13) | MIC ([3]; Hoylesella timonensis, isolate 601175 J) | MIC ([3]; Hoylesella timonensis, isolate 601178 19) | MIC ([3]; Hoylesella timonensis, isolate 601214 A) | MIC ([3]; Hoylesella timonensis, isolate 601226 C) | MIC ([3]; Hoylesella timonensis, isolate 601234 B) | MIC ([3]; Hoylesella timonensis, isolate 601245 16) | MIC ([3]; Hoylesella timonensis, isolate 601252 B) | MIC ([3]; Hoylesella timonensis, isolate 601255 17) | MIC ([3]; Hoylesella timonensis, isolate 601266 18) | MIC ([3]; Hoylesella timonensis, isolate 601278 12) | MIC ([3]; Hoylesella timonensis, isolate 601281 22) | MIC ([3]; Hoylesella timonensis, isolate 601287 H) | MIC ([3]; Hoylesella timonensis, isolate 601293 13) | MIC ([3]; Hoylesella timonensis, isolate 601311 B) | MIC ([3]; Hoylesella timonensis, isolate 601367 E) | MIC ([3]; Hoylesella timonensis, isolate 601388 S) | MIC ([3]; Hoylesella timonensis, isolate 601401 J) | MIC ([3]; Hoylesella timonensis, isolate 601411 S) | MIC ([3]; Hoylesella timonensis, isolate 601422 39) | MIC ([3]; Hoylesella timonensis, isolate 601429 11) | MIC ([3]; Hoylesella timonensis, isolate 601459 21) | MIC50 [3, 12] | MIC90 [3, 12] | MIC90 ([4]; # tested 40) | MIC ([6]; Peptoniphilus lacrimalis, isolate 601028V 27A) | MIC ([6]; Peptoniphilus lacrimalis, isolate 601060V 32A) | MIC ([6]; Peptoniphilus lacrimalis, isolate 601078V O) | MIC ([6]; Peptoniphilus lacrimalis, isolate 601084V c) | MIC ([6]; Peptoniphilus lacrimalis, isolate 601105V 13) | MIC ([6]; Peptoniphilus lacrimalis, isolate 601139V 17) | MIC ([6]; Peptoniphilus lacrimalis, isolate 601213V 17) | MIC ([6]; Peptoniphilus lacrimalis, isolate 601255V 12) | MIC ([6]; Peptoniphilus lacrimalis, isolate 601261V O) | MIC ([6]; Peptoniphilus lacrimalis, isolate 601296V N) | MIC ([6]; Peptoniphilus lacrimalis, isolate 601330V H) | MIC ([6]; Peptoniphilus lacrimalis, isolate 601336V 47) | MIC50 [6, 13] | MIC90 [6, 13] | MIC ([8]; Peptoniphilus harei, isolate 601259V 11) | MIC ([8]; Peptoniphilus harei, isolate 601302V F1) | MIC ([8]; Peptoniphilus harei, isolate 601326V F) | MIC ([8]; Peptoniphilus harei, isolate 601355V D) | MIC ([8]; Peptoniphilus harei, isolate 601374V F) | MIC ([8]; Peptoniphilus harei, isolate 601430V 22) | MIC90 [8, 14] | MIC90 [10, 15]
0.00375 to 0.03 µg/mL: MIC Range ([6]; # tested 20) | MIC Range ([8]; # tested 23)
2: Number of strains with indicated MIC ([3]; MIC 0.0075 μg/ml) | Number of strains with indicated MIC ([3]; MIC 0.03 μg/ml) | Number of strains with indicated MIC ([6]; MIC 0.00375 μg/ml)
11: Number of strains with indicated MIC ([2]; MIC >[…])
0.00375 to 0.06 µg/mL: MIC Range ([3]; # tested 33)
0.0075 to 0.03 µg/mL: MIC Range ([4]; # tested 40)
10: Number of strains with indicated MIC ([10]; MIC 0.0075 μg/ml)
5: Number of strains with indicated MIC ([6]; MIC 0.0075 μg/ml) | Number of strains with indicated MIC ([10]; MIC 0.015 μg/ml)
2 µg/mL: MIC50 [2, 11]
more efficacious: efficacy against all pathogen vaginal bacteria judged from MICs, in comparison to metronidazole and clindamycin ([1]; in particular when Prevotella strains are present)
3: Number of strains with indicated MIC ([2]; MIC 8 μg/ml)
0.03 µg/mL: MIC ([3]; Hoylesella timonensis, isolate 601370 13) | MIC ([3]; Hoylesella timonensis, isolate 601414 O) | MIC ([6]; Peptoniphilus lacrimalis, isolate 601293V 15) | MIC ([8]; Peptoniphilus harei, isolate 601233V R)
efficacious: efficacy in the treatment of vaginal infections [5]
had activity: activity on Mobiluncus species [4]
0.00375 µg/mL: MIC ([3]; Hoylesella timonensis, isolate 301212 10) | MIC ([6]; Peptoniphilus lacrimalis, isolate 601388V B) | MIC ([6]; Peptoniphilus lacrimalis, isolate 601401V I) | MIC ([8]; Peptoniphilus harei, isolate 601311V R) | MIC50 [10, 15]
0.00375 to 0.25 µg/mL: MIC Range ([10]; # tested 62)
higher susceptibility: susceptibility of pathogenic strains in respect to clindamycin ([1]; Prevotella, Anaerococcus, Finegoldia, Peptoniphilus and Atopobium strains) | susceptibility of pathogenic strains in respect to metronidazole ([1]; Prevotella, Anaerococcus, Peptoniphilus, Atopobium, Megasphera and Mobiluncus strains)
43: Number of strains with indicated MIC ([10]; MIC 0.00375 μg/ml)
~90%: share of G vaginalis strains against which the agent had activity [2]
0.0075 µg/mL: MIC ([3]; Hoylesella timonensis, isolate 601080 5) | MIC ([3]; Hoylesella timonensis, isolate 601194 9B) | MIC50 ([4]; # tested 40) | MIC ([6]; Peptoniphilus lacrimalis, isolate 601305V K-1) | MIC ([6]; Peptoniphilus lacrimalis, isolate 601318V E) | MIC ([6]; Peptoniphilus lacrimalis, isolate 601365V 13) | MIC ([6]; Peptoniphilus lacrimalis, isolate 601368V 39) | MIC ([6]; Peptoniphilus lacrimalis, isolate 601375V E) | MIC ([8]; Peptoniphilus harei, isolate 426868V D) | MIC ([8]; Peptoniphilus harei, isolate 601098V Q) | MIC ([8]; Peptoniphilus harei, isolate 601203V 8) | MIC ([8]; Peptoniphilus harei, isolate 601212V 15) | MIC ([8]; Peptoniphilus harei, isolate 601248V 23) | MIC ([8]; Peptoniphilus harei, isolate 601289V C) | MIC ([8]; Peptoniphilus harei, isolate 601293V 21) | MIC ([8]; Peptoniphilus harei, isolate 601342V F) | MIC ([8]; Peptoniphilus harei, isolate 601365V 14) | MIC ([8]; Peptoniphilus harei, isolate 601388V Q) | MIC ([8]; Peptoniphilus harei, isolate 601399V 16) | MIC ([8]; Peptoniphilus harei, isolate 601409V L) | MIC ([8]; Peptoniphilus harei, isolate 601413V 16) | MIC ([8]; Peptoniphilus harei, isolate 601426V D) | MIC ([8]; Peptoniphilus harei, isolate 601539V 25B) | MIC50 [8, 14]
